In US11667919B2, “Targeting cancer-associated long non-coding RNAs” (University of Pittsburgh—Of the Commonwealth System of …, priority 2018, dated 2023):

Legend:
Assay type in all cases: cell-based, human
[1] = system: MCF-7, BT-474, ZR-75-1 and A549 cells; assay: MTT growth inhibition by BET inhibitors in EPIC1 knockdown or overexpressing cells; settings: EPIC1 overexpression; MCF-7 and A549 cells
Description: For RNA interference, cells were transfected with 40 nM siRNA targeting EPIC1, or control siRNA using Lipofectamine RNAiMAX (Thermo Fisher, #13778150) per the manufacturer's instructions. For quantitative real-time PCR (qRT-PCR) analysis, total RNA was isolated 72 h later using an RNeasy Mini kit (Qiagen, #74104) according to the manufacturer's instructions; cDNAs were synthesized from 0.5 μg of total RNA using a High-Capacity cDNA Reverse Transcription Kit (Applied Biosystems, #4368813). qRT-PCR was performed with Power SYBR Green PCR Master Mix (Applied Biosystems, #4367659) on a QuantStudio 6 Flex Real-Time PCR System (Applied Biosystems). Relative gene expression was determined by ΔΔCt normalized to GAPDH.
Validation of IncRNA-drug predictive pairs in cell lines. MCF-7 cells (MCF-7/Vector and MCF-7/EPIC1) and A549 cells (A549/Vector and A549/EPIC1) stably expressing an empty vector and EPIC1 were established with retroviral particles using the previously published method. […]
The ectopic expression level of EPIC1 in stable cells was confirmed using PCR. […] The absorbance value was measured at 570 nm using an xMark Microplate Spectrophotometer (Bio-Rad) with a reference wavelength of 630 nm and the IC50 of JQ-1 and I-BET-762 on cells was calculated, respectively.

[2] = system: MCF-7 and ZR-75-1 cells; assay: Cell cycle assay (PI staining, flow cytometry); settings: LNA against EPIC1, MCF-7 cells
Description: For the cell cycle assay, cells were collected, rinsed with PBS, and fixed for a minimum of 2 hr by adding 70% ice-cold ethanol at −20° C. Cells were then sequentially washed once in PBS and BD Pharmingen stain buffer (BD Biosciences, #554656). Cell pellets were resuspended in 0.5 ml of BD Pharmingen PI/RNase staining buffer (BD Biosciences, #550825) and incubated for 15 min at room temperature (RT), and cells were immediately analyzed using an LSRFORTESSA X-20 flow cytometer (BD Biosciences). The data were analyzed with FlowJo software.

[3] = system: Myc targets; assay: Myc target expression after knockdown (RNA-seq, qRT-PCR, western blot); settings: LNA against EPIC1, MCF-7 cells
Description: For RNA interference, cells were transfected with 40 nM siRNA targeting EPIC1, Myc, or a control siRNA using Lipofectamine RNAiMAX (ThermoFisher, #13778150) per the manufacturer's instructions. Total RNA was isolated 72 hr later for real-time PCR analysis. The siRNA sequences are SEQ ID NOS: 4-6.
For LNA transfection, cells were transfected with 40 nM LNA oligos targeting EPIC1, and a scramble control using Lipofectamine™ RNAiMAX per the guidelines. The LNA oligos (e.g., SEQ ID NO: 9) were designed and synthesized from Exiqon.
RNA Isolation and Quantitative Real-Time PCR (qRT-PCR) Assays: Total RNA was isolated from cultured cells using an RNeasy Mini kit (Qiagen, #74104) according to the manufacturer's instructions. cDNAs were synthesized from […] of total RNA using a High-Capacity cDNA Reverse Transcription Kit (Applied Biosystems, #4368813). Real-time PCR was performed with Power SYBR Green PCR Master Mix (Applied Biosystems, #4367659) on a QuantStudio 6 Flex Real-Time PCR System (Applied Biosystems). Relative gene expression was determined by DDCt normalized to GAPDH.
Cell lysates were also treated with equal volume of 2× SDS sample buffer and resolved by SDS-PAGE under denaturing conditions and transferred onto PVDF membranes (Bio-Rad, #162-0177). […]

Molecule	resistance to BET inhibitor promoted by EPIC1 [1]	cell-cycle analysis [2]	expression of Myc target genes [3]
CCNC(=O)C[C@@H]1N=C(c2ccc(Cl)cc2)c2cc(OC)ccc2-n2c(C)nnc21 [iBET762, I-BET-762 (iBET762)]	strongly promotes iBET762 and JQ-1 resistance		
LNA: LNA oligo targeting EPIC1, e.g. SEQ ID NO: 9 (5′-GTCGACTCCTGCCGGA-3′), designed and synthesized from Exiqon (LNA oligo from Exiqon, LNA positions not given here)		significantly caused Gi arrest of MCF-7 cells	curtailed the expression of Myc target genes
(+)-JQ1 [JQ-1]	strongly promotes iBET762 and JQ-1 resistance		
